Laboratory results: patent US3985774A, “Purification of γ-oxo-2-dibenzofuranbutyric acid” (American Home Products Corporation, priority 1972, dated 1976)

Tests used:
[1] = system: carragheenin paw edema; test: carragheenin paw edema test; format: in vivo, rat; details: rats; for % INHIBITION of edema / EDEMA (results expressed in grams of mercury displaced): 3 h after carragheenin
Procedure: A. Winter, et al., Proc. Soc. Exp. Biol., lll, 544 (1962). […] A. Winter in "Non-Steroidal Anti-inflammatory Drugs", S. Garattine and M. N. G. Dukes, Eds., Excerpta Medica International Congress, Ser. No. 82, 1965, p. 190.
More particularly exemplified a substantial effect for γ-oxo-2-dibenzofuranbutyric acid is demonstrable at oral doses of 200 mg/kg or less in this paw edema test. In this test rats are treated with the test compound one hour before a 1% suspension of carragheenin in saline is injected into the subplantar area of the hind paw of the rat. Results are obtained by measuring the increase in paw volume caused by the resulting edema three hours later by plethysmography in mercury and expressing values as grams of mercury displaced. Control animals receive the vehicle only. The results are expressed as percent inhibition in edematous swelling calculated as [formula] where Δ control is the increase in volume measured in untreated controls and Δ treated is the increase in volume found in the treated animals.
The following table lists the results obtained for both γ-oxo-2-dibenzofuranbutyric acid (l) and its isomer ll.

[2] = system: inflammatory conditions; test: antiinflammatory activity (pharmacologic testing); format: in vivo; details: for antiinflammatory properties / activity: in vivo
[3] = antipyretic activity (standard pharmacologic test); details: in vivo
Source text: (§1) The useful antiinflammatory, analgesic and antipyretic activities of the product of this invention is demonstrable in standard pharmacologic tests, for example, the test described by R. A. Turner in "Screening Method in Pharmacology", Academic Press, New York and London, 1965, pp. 152-163, pp. 100-117 and pp. 298-299, respectively.

[4] = system: warm-blooded animals; test: toxicity / tolerance (acute toxicity tests and prolonged administration); details: in vivo
[5] = analgesic activity (standard pharmacologic test); details: in vivo
Source text: as §1

[6] = system: gastrointestinal ulcers; test: ulcerogenic activity in a modification of a known method; format: in vivo; details: therapeutic dose levels
[7] = solubility in water; format: physicochemical

## O=C(O)CCC(=O)c1ccc2c(c1)oc1ccccc12 [γ-oxo-3-dibenzofuranbutyric acid]
[1]; Experiment B, 100 mg/kg
  % INHIBITION of edema: 5%
  EDEMA (results expressed in grams of mercury displaced): 13.6 ± 1.38 grams of mercury displaced
[1]; Experiment B, 200 mg/kg
  % INHIBITION of edema: 34%
  EDEMA (results expressed in grams of mercury displaced): 9.5 ± 1.11 grams of mercury displaced
[1]; Experiment B, 400 mg/kg
  % INHIBITION of edema: 28%
  EDEMA (results expressed in grams of mercury displaced): 10.3 ± 1.05 grams of mercury displaced
[1]; Experiment C, 100 mg/kg
  % INHIBITION of edema: 18%
  EDEMA (results expressed in grams of mercury displaced): 9.9 ± 0.67 grams of mercury displaced
[2]
  antiinflammatory properties / activity: have antiinflammatory activity

## O=C(O)CCC(=O)c1ccc2oc3ccccc3c2c1 [γ-oxo-2-dibenzofuranbutyric acid]
[1]; Experiment A, 50 mg/kg, oral
  % INHIBITION of edema: 37%
  EDEMA (results expressed in grams of mercury displaced): 7.7 ± 0.88 grams of mercury displaced
[1]; Experiment A, 100 mg/kg, oral
  % INHIBITION of edema: 54%
  EDEMA (results expressed in grams of mercury displaced): 5.7 ± 0.42 grams of mercury displaced
[1]; Experiment A, 200 mg/kg, oral
  % INHIBITION of edema: 78%
  EDEMA (results expressed in grams of mercury displaced): 2.7 ± 0.36 grams of mercury displaced
[1]; Experiment C, 100 mg/kg
  % INHIBITION of edema: 60%
  EDEMA (results expressed in grams of mercury displaced): 4.8 ± 0.46 grams of mercury displaced
[1]; Rattus norvegicus, oral, read-out: oral dose at which a substantial effect is demonstrable
  minimal effective dose: ≤ 200 mg/kg
[1]; paw edema test
  activity compared with isomer ll (Student's t test): significantly more active than the isomer ll
[3]
  antipyretic activity: possesses analgesic and antipyretic activity
[4]
  side effects: lack of side effects
  therapeutic index: highly favorable therapeutic index
  tolerance: exceptionally well tolerated
  toxicity: low order of toxicity
[2]; acid l versus isomer ll
  antiinflammatory activity compared with isomer ll: somewhat more active
  onset of action compared with isomer ll: quicker onset of action
[2]
  antiinflammatory properties / activity: important antiinflammatory properties
[2]; listed as acid l
  antiinflammatory properties / activity: have antiinflammatory activity
[5]
  analgesic activity: possesses analgesic and antipyretic activity
[6]
  formation of gastrointestinal ulcers: does not cause formation of gastrointestinal ulcers
[7]
  solubility in water: only limited solubility in water
